Reference: paper PMC4721062, “Oxadiazole-2-oxides may have other functional targets, in addition to SjTGR, through which they cause mortality in Schistosoma japonicum” (Parasites & Vectors, 2016)
“Also recorded” adds a separate entry of the source. Like-named read-outs stand apart in the source and are kept apart here.

Tests used:
recombinant SjTGR = biological target: T1, recombinant SjTGR (Schistosoma japonicum, UniProt B5THG7); assay: Inhibition of TrxR activity of recombinant SjTGR (DTNB assay); format: biochemical; details: 50 nM SjTGR, 1 mM NADPH, 15 min preincubation, DTNB reduction
T1 sequence (B5THG7 1-596): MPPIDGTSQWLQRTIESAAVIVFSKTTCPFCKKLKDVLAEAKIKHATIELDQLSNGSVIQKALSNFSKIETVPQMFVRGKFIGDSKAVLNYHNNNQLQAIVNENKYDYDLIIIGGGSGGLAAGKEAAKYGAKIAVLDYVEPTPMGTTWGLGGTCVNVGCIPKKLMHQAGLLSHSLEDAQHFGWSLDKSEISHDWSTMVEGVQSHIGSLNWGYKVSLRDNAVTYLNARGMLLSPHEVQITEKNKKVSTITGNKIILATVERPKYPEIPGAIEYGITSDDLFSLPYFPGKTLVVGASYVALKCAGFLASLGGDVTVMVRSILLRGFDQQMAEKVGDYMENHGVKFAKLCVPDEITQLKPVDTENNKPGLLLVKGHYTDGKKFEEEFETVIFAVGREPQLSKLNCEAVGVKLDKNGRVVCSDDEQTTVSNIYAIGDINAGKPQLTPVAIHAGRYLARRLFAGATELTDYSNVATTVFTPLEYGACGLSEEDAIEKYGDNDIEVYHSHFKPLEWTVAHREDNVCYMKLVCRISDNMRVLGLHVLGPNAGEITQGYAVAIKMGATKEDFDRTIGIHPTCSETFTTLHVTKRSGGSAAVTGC
Procedure, shortened: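 SjTGR (50 nM) preincubated 15 min at room temperature with 1 mM NADPH and oxadiazole-2-oxides (2-20 μM). Reaction started with potassium phosphate pH 7.4, 10 mM EDTA, 100 μM NADPH, 3 mM DTNB; A412 increase followed over first 2 min, triplicates.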

juvenile S. japonicum = assay: microbe, parasite or virus in culture; format: cell-based; details: for mortality at 100 µM / killing at 2 µM / killing at 5 µM / killing at 50 µM / mortality at 50 µM: Schistosoma japonicum; for mortality at 100 µM / mortality at 50 µM: read-out: Mortality of juvenile worms; for killing at 2 µM / killing at 5 µM / killing at 50 µM / Killing activity 24hr / Killing activity 48hr / Killing activity 72hr: juvenile worms; for Killing activity 24hr / Killing activity 48hr / Killing activity 72hr: 10 μM
Procedure, shortened: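 Juvenile S. japonicum, 20–30 tail-shed cercariae per well, were exposed to compounds at 2, 5, 10 and 50 μM in RPMI 1640 with 10% FBS and HEPES. Survival was scored microscopically at 24, 48 and 72 h, with death defined by disrupted internal structure or tegument or 1 min without motility. % D is dead/total, averaged over three experiments.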

[1] = 24 h, read-out: Killing activity 24hr
[2] = 48 h, read-out: Killing activity 48hr
[3] = 72 h, read-out: Killing activity 72hr

Structure (SMILES) | IC50 (recombinant SjTGR; read-out: IC50 of SjTGR) [µM] | mortality at 100 µM (juvenile S. japonicum; 72 h) [%] | killing at 2 µM (juvenile S. japonicum; [1]) [%] | killing at 2 µM (juvenile S. japonicum; [2]) [%] | killing at 2 µM (juvenile S. japonicum; [3]) [%] | killing at 5 µM (juvenile S. japonicum; [1]) [%] | killing at 5 µM (juvenile S. japonicum; [2]) [%] | killing at 5 µM (juvenile S. japonicum; [3]) [%] | killing at 50 µM (juvenile S. japonicum; [1]) [%] | killing at 50 µM (juvenile S. japonicum; [2]) [%] | killing at 50 µM (juvenile S. japonicum; [3]) [%] | Killing activity 24hr (juvenile S. japonicum; 24 h) [%D] | Killing activity 48hr (juvenile S. japonicum; 48 h) [%D] | Killing activity 72hr (juvenile S. japonicum; 72 h) [%D] | mortality at 50 µM (juvenile S. japonicum; 24 h) [%] | IC50 (recombinant SjTGR; IC50 of SjTGR) [µM] | mortality at 50 µM (juvenile S. japonicum; 72 h) [%] | IC50 of SjTGR (recombinant SjTGR)
COc1ccc(-c2no[n+]([O-])c2CO)cc1 [Compound 4a] | 2.7 | 90 ± 2.8 | 29.4 | 35.3 | 44.1 | 36.2 | 48.9 | 53.2 | 56.8 | 88.6 | 90.9 | 26.7 | 37.8 | 58.9 | – | – | – | –
Cc1ccc(-c2no[n+]([O-])c2CO)cc1 [Compound 4b] | 1.7 | 100 | 35.2 | 35.2 | 42.3 | 42.9 | 46.9 | 51 | 76.5 | 88.2 | 100 | 48.0 | 50.0 | 60.0 | > 70 | – | – | –
COc1ccc(-c2no[n+]([O-])c2C#N)cc1 [Compound 7a] | – | – | 14.6 | 29.2 | 41.7 | 15.7 | 39.2 | 39.2 | 46.2 | 53.3 | 70 | 36.7 | 36.7 | 60.0 | – | 12.2 | – | –
Cc1ccc(-c2no[n+]([O-])c2C#N)cc1 [Compound 7b] | – | – | 16 | 26.6 | 31.9 | 21.1 | 26.3 | 36.8 | 47.5 | 55.9 | 57.6 | 23.8 | 33.3 | 57.1 | – | 14.2 | – | –
N#Cc1c(-c2ccc(Br)cc2)no[n+]1[O-] [Compound 7c] | – | – | 100 | 100 | 100 | 100 | 100 | 100 | 100 | 100 | 100 | 100.0 | 100.0 | 100.0 | > 70 | 3.7 | 100 | –
N#Cc1c(-c2ccc(O)cc2)no[n+]1[O-] [Compound 8] | – | – | 12 | 18 | 21 | 12.8 | 23 | 46.2 | 26.8 | 28.2 | 33.8 | 15.1 | 23.3 | 25.6 | < 30 | 37.4 | – | –
N#Cc1c(-c2ccc(OCCBr)cc2)no[n+]1[O-] [Compound 12] | 21.7 | – | 17.3 | 17.3 | 19.2 | 16.4 | 18.2 | 23.6 | 33.3 | 36.2 | 72.5 | 21.3 | 21.3 | 28.8 | < 30 | – | – | –
N#Cc1c(-c2ccc(OCCCBr)cc2)no[n+]1[O-] [Compound 13] | 1.6 | – | 13 | 13 | 13 | 14.2 | 15.5 | 15.5 | 23.3 | 29.9 | 41 | 19.0 | 19.0 | 20.3 | < 30 | – | 41 ± 6.3 | –
N#Cc1c(-c2ccc(OC/C=C/CBr)cc2)no[n+]1[O-] [Compound 16] | 0.5 | – | 14.7 | 22.7 | 25.3 | 16.1 | 21.9 | 34.3 | 31.4 | 60.5 | 72.1 | 20.9 | 27.3 | 39.1 | < 30 | – | 72.1 ± 3.7 | –
N#Cc1c(-c2ccc(OCc3ccccc3)cc2)no[n+]1[O-] [Compound 19] | > 20 | – | 15.1 | 15.1 | 17 | 12.5 | 19.2 | 28.8 | 82.5 | 92.8 | 100 | 43.8 | 50.0 | 65.0 | – | – | – | did not inhibit; also recorded: neither did they inhibit the SjTGR activity
C#CCOc1ccc(-c2no[n+]([O-])c2C#N)cc1 [Compound 20] | 3.3 | 67.6 ± 4.5 | 8.5 | 14.2 | 19.9 | 20 | 24 | 34 | 45.6 | 48.5 | 67.6 | 43.4 | 45.3 | 52.8 | – | – | – | –
N#Cc1c(-c2ccc(COc3ccccc3)cc2)no[n+]1[O-] [Compound 23] | > 20 | – | 6 | 16.1 | 17.7 | 9 | 15 | 20 | 69.9 | 70.8 | 77 | 45.0 | 60.0 | 66.7 | > 70 | – | – | did not inhibit
N#Cc1c(-c2ccc(COc3ccc(C=O)cc3)cc2)no[n+]1[O-] [Compound 26] | > 20 | – | 36.4 | 36.4 | 50.9 | 48.9 | 48.9 | 53.2 | 46.3 | 63.4 | 85.4 | 56.1 | 61.0 | 80.5 | – | – | – | did not inhibit; also recorded: neither did they inhibit the SjTGR activity
Cc1ccc2cccc(OCc3ccc(-c4no[n+]([O-])c4C#N)cc3)c2n1 [Compound 28] | > 20 | – | 8.2 | 13.7 | 19.2 | 14.8 | 21.6 | 26.1 | 31.9 | 36.2 | 39.1 | 14.5 | 17.4 | 30.4 | < 30 | – | – | did not inhibit
